Here are results for six compounds from patent US10610602B2, “Tumor cell-specific responsive self-assembling drug nanoconjugate” (KOREA INSTITUTE OF SCIENCE AND TECHNOLOGY, priority 2017, dated 2020).

Entries after “also recorded” stand apart in the source; their conditions may differ. Like-named read-outs stand apart in the source and are kept apart here. Residues, ends and D or L forms follow the SMILES beside them. No end group written: not given here. *: point of attachment. Doxorubicin(3'-N) = COc1cccc2c1C(=O)c1c(O)c3c(c(O)c1C2=O)C[C@@](O)(C(=O)CO)C[C@@H]3O[C@H]1C[C@H](N*)[C@H](O)[C@H](C)O1

A short description of series [1]: Non-enzymatic hydrolysis in PBS buffer only, HPLC. The format is physicochemical. The note with it: 37° C., 9 h. The procedure:
The drug conjugate of Example 1 was allowed to react with other enzymes (10 μg/ml cathepsins D, E, and L) and PBS buffer only (in this case, a non-enzymatic hydrolysis product was obtained) and the reaction products were analyzed by HPLC at 37° C. for 9 h.

Series [2] concerns H9C2 cells (normal cells). The format is cell-based, Rattus. The procedure:
(§1) First, HT-29 cells were plated in a 96-well plate at a density of 1×10^4 cells/well. […] Then, […] of CCK solution was added to each well. After further culture for 30 min, the absorbance of each 96-well plate at 450 nm was analyzed using a microplate reader (VERSAmax™, Molecular Devices Corp., Sunnyvale, Calif.). For comparison, the cell viabilities (%) of H9C2 cells (normal cells) were measured in the same manner as described above.

Series [3] concerns HT29 tumor. The series can be described thus: Doxorubicin accumulation in tumor tissues after intravenous administration, near-infrared fluorescence. The procedure: In this example, the in vivo anticancer effects of doxorubicin (Free DOX) and FRRG-DOX (SEQ ID NO: 7) of Example 1 were investigated. First, 1×10^7 HT-29 cells were directly injected into the right flank of each tumor animal model constructed in 1) (n=4 per group). When the tumor size reached ˜250-300 mm3, doxorubicin (Free DOX, 5 mg/kg) and FRRG DOX (SEQ ID NO: 7) of Example 1 (5 mg/kg) were administered intravenously once every three days for 15 days.
(§2) The therapeutic efficacies of Free DOX, FRRG-DOX (SEQ ID NO: 7), and the control were compared by measuring the tumor volumes (maximum diameter×minimum diameter 2×0.53) for 15 days. The viabilities and weights of the tumor animal models were measured once a day for 15 days. The accumulations of Free DOX and FRRG-DOX (SEQ ID NO: 7) in the tumor tissues of the tumor animal models were monitored using IVIS Lumina Series III (PerkinElmer, Massachusetts, USA). The fluorescence intensities of Free DOX and FRRG-DOX (SEQ ID NO: 7) in the tumor tissues were quantified using the Living Image software (PerkinElmer, Massachusetts, USA).

Series [4] concerns HT29 tumor. To be noted: for viability (survival rate) of animal tumor models: for 16 days, FIG. 4C; for apoptosis in organ tissues (annexin V staining): heart, spleen, tumor tissues, FIG. 4D. As to the method:
In this example, the in vivo anticancer effects of doxorubicin (Free DOX) and FRRG-DOX (SEQ ID NO: 7) of Example 1 were investigated. First, 1×10^7 HT-29 cells were directly injected into the right flank of each tumor animal model constructed in 1) (n=4 per group). When the tumor size reached ˜200 mm^3, doxorubicin (Free DOX, 5 mg/kg) and FRRG DOX (SEQ ID NO: 7) of Example 1 (5 mg/kg) were administered by tail vein injection once every three days for 15 days.
as §2
Annexin V staining was performed to confirm that apoptosis occurred in tumor tissues excised from the tumor animal models. First, section slides (10 μm) of the excised tumor tissues were washed three times with DPBS, incubated with annexin V solution (200 μl of a binding buffer containing 5 μl of annexin V-Cy5.5) at 37° C. for 20 min, incubated with DAPI at room temperature for 15 min, placed on cover glass, and observed under a confocal laser microscope.

The conditions of series [5]: rat, in vivo.
For another series, the system named is hiPSC-CMs. In words: Multi-electrode array (MEA) analysis. It is filed as cell-based, human. To be noted: FRRG-DOX 0.2 μM; doxorubicin 0.1 μM; compared to the baseline. The procedure:
Multi-electrode array analysis was conducted by the following procedure. First, human induced pluripotent stem cell-derived cardiomyocytes (hiPSC-CMs, Cellular Dynamics International [CDI], Madison, Wis., USA) were thawed in a 100 mm culture dish. After 1 week, the thawed hiPSC-CMs were plated in an MEA plate coated with fibronectin solution (50 μg/ml). On day 2 after thawing, the plating medium was replaced with a maintenance medium (CDI). Maintenance media were replaced with new ones every 2-3 days. Only 50% of the culture media were replaced with new ones. 2 weeks after plating in the plate, field potentials of spontaneously beating cardiomyocytes were recorded using a Maestro system (Axion Biosystems Inc., Atlanta, Ga., USA). The waveforms of the extracellular field potentials were recorded 10 min after the equilibration period. Inter-spike interval and extracellular field potential duration (FPD) were analyzed and quantified. To minimize the influence of the beat rate on FPD, corrected FPD (FPDcF) was calculated using Fridericia's formula 1: FPDcF=FPD/[inter−spike interval]1/3 (1)

In the next series the test system is HT-29 cells. In words: In vitro cell viability (CCK). It is filed as cell-based, human. The note with it: HT29, FIG. 5E. The procedure: as §1
Series [6] is described as follows: Nanoparticle size by dynamic light scattering. It is filed as physicochemical. To be noted: FIG. 5B. As to the method: The size distribution was measured using Zetasizer Nano ZS (Malvern Instruments, Worcestershire, U.K).
The test system of another series is cells. In words: Cellular and nuclear uptake of drug conjugates of Examples 2-4, confocal microscopy. The format is cell-based. To be noted: for antitumor effects or intracellular uptake effects / absorption into cells: FIGS. 5C and 5D. The source says: In FIG. 5D, “Cytosol “and “Nucleus” indicate the fluorescence intensities of DOX measured in cytosol and cell nuclei, respectively.

Series [7] is described as follows: Electrocardiography (ECG) analysis. It is filed as in vivo, ICR mice. To be noted: intravenous; 5 mg/kg doxorubicin or 10 mg/kg FRRG-doxorubicin; versus control. The procedure: ECG analysis was performed under the approval of the Institutional Animal Care and Use Committee at the Korea Institute of Toxicology. All procedures were performed according to the National Institutes of Health guidelines for the care and use of laboratory animals. A mixture of isoflourane and oxygen as an anaesthetic gas was injected at a rate of 2 cc/min to ICR mice (25-35 g, Orient Bio Inc., Seoul, Korea). ECG was measured before injection of the anaesthetic gas into an animal bio amp (ADinstruments Pty Ltd, Bella Vista, Australia). The measured ECG was defined as baseline. For 6 h after injection of the anaesthetic gas, ECG was measured. All mice were injected intravenously with saline, 5 mg/kg doxorubicin (in saline) or 10 mg/kg FRRG-doxorubicin (SEQ ID NO: 7) (Example 1) (in saline). The measured ECG data were analyzed using the LabChart 8 software (ADinstruments Pty Ltd, Bella Vista, Australia). Corrected QT (QTc) was calculated using Van de Water's formula 2 and Bazett's formula 3: QTc−V=0.087[(60/HR)−1] (2) QTc−B=QT/(RR)1/2 (3)

Series [8] can be described thus: Heart damage markers in blood samples. To be noted: versus control (saline), FIG. 4E.
Where [9] appears, read: 5 mg/kg tail vein once every three days for 15 days.
The mark [10] stands for this setting: intravenous, DAPI-stained tissue sections, FIG. 3G.

Consider `COc1cccc2c1C(=O)c1c(O)c3c(c(O)c1C2=O)C[C@@](O)(C(=O)CO)C[C@@H]3O[C@H]1C[C@H](NC(=O)CNC(=O)[C@H](CCCNC(=N)N)NC(=O)[C@H](CCCNC(=N)N)NC(=O)[C@H](Cc2ccccc2)NC(C)=O)[C@H](O)[C@H](C)O1` [FRRG-DOX] (Ac-FRRG-{Doxorubicin(3'-N)}), for which the “stability in phosphate buffered saline” value in [1] is “very stable in phosphate buffered saline”. Further, the “cell viability compared with group treated with doxorubicin alone (Free DOX)” value in [2] was “significant difference in cell viability”. The “doxorubicin accumulation in tumor tissues” value (“doxorubicin accumulation” below) in the series with HT29 tumor [3] (mouse, in vivo, iv) is listed as “doxorubicin was accumulated in the tumor tissues”. Also, the “toxicity to normal cells in tumor animal models” value in the series with HT29 tumor [4] (setting [9]) is recorded as “no toxicity was observed”. For the same compound, in the series on HT29 tumor [4], the “viability (survival rate) of animal tumor models” value was determined as 100% and the “apoptosis in organ tissues (annexin V staining)” value is on record as “apoptosis was observed only in the tumor tissues”. Moreover, in [5], the “levels of markers indicative of heart damage (hs troponin-T, Troponin-I, CK-MM, CPK total)” value is “about two times lower than or comparable to those in the control”. In the series on hiPSC-CMs, the FPD entry is “remained substantially unchanged” and the FPDcF entry is on record as “remained substantially unchanged”.
In the case of GGGGFRRG-DOX (GGGGFRRG-doxorubicin), in the series with HT-29 cells, the “antitumor effect (cell viability of HT29)” value is listed as “same antitumor effect as DOX; also recorded: most effective in antitumor action”. The “measured sizes of the nanoparticles” value in series [6] is on record as 200-600 nm. The “antitumor effects or intracellular uptake effects” value with cells is recorded as “showed antitumor effects or intracellular uptake effects”.
As to `COc1cccc2c1C(=O)c1c(O)c3c(c(O)c1C2=O)C[C@@](O)(C(=O)CO)C[C@@H]3O[C@H]1C[C@H](NC(=O)CNC(=O)[C@H](CCCNC(=N)N)NC(=O)[C@H](CCCNC(=N)N)NC(C)=O)[C@H](O)[C@H](C)O1` [RRG-DOX], in the series with HT29 tumor [3] (5 mg/kg intravenous, FIG. 3E/3F), the “fluorescence intensity of doxorubicin in excised tumor tissues” value was “low fluorescence intensity”. For the same compound, in the series with HT29 tumor [3] (setting [10]), the “doxorubicin accumulation” value was “could not be effectively accumulated in tissues”.
Take GGFRRGGG-DOX (GGFRRGGG-doxorubicin): the “measured sizes of the nanoparticles” value in series [6] was 50-200 nm. The “uptake into cell nuclei relative to drug conjugates of Examples 1 and 2” value in the series on cells (FIG. 5D) was 10 times lower. Besides, in the series on cells, the absorption into cells result is on record as “readily absorbed into cells” and the “antitumor effects or intracellular uptake effects” value is reported as “showed antitumor effects or intracellular uptake effects”.
Turning to FRRGGGGG-DOX (FRRGGGGG-doxorubicin), in [6], the “measured sizes of the nanoparticles” value is on record as 300-700 nm. Further, in the series with cells, the absorption into cells result is on record as “not readily absorbed into cells” and the “antitumor effects or intracellular uptake effects” value is recorded as “showed antitumor effects or intracellular uptake effects”.
On to `COc1cccc2c1C(=O)c1c(O)c3c(c(O)c1C2=O)C[C@@](O)(C(=O)CO)C[C@@H]3O[C@H]1C[C@H](N)[C@H](O)[C@H](C)O1` [doxorubicin], for which the “doxorubicin accumulation” value in the series with HT29 tumor [3] (setting [10]) is reported as “could not be effectively accumulated in tissues”. Moreover, the QTc values entry in [7] is reported as “extended compared to those measured in the control”. Further, in the series with HT29 tumor [4] (5 mg/kg tail vein once every three days), the “weight of the tumor animal models” value is “began to decrease”. Besides, in the series on HT29 tumor [4] (setting [9]), the “inhibition of tumor growth (tumor volume)” value is reported as “significantly inhibit tumor growth” and the “toxicity to normal cells in tumor animal models” value is recorded as “Toxicity to normal cells was observed”. For the same compound, in the series with HT29 tumor [4], the “viability (survival rate) of animal tumor models” value is given as “mortality began to increase rapidly”; the “apoptosis in organ tissues (annexin V staining)” value is “apoptosis was observed in all of the heart, spleen, and tumor tissues”. Besides, the “levels of markers indicative of heart damage (hs troponin-T, Troponin-I, CK-MM, CPK total)” value in series [8] is reported as “higher levels of all markers”. In addition, in the series on hiPSC-CMs, the FPD entry is “significantly low compared to the baseline” and the FPDcF result is “significantly low compared to the baseline”.
